Reference: PubChem BioAssay (NCI)
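In this assay, cells in 96-well plates receive the compound at five concentrations for 48 hours. Endpoints are linearly interpolated between the surrounding concentrations. Abbreviation: GI50, concentration required for 50% inhibition of growth. The concentration for full growth arrest is given as TGI.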

How the values were obtained:
Assay in all cases: inhibition of tumour cell growth, NCI panel, 48 h
SN12C renal = test system: SN12C renal
PC-3 prostate = test system: PC-3 prostate
MCF7 breast = test system: MCF7 breast
TK-10 renal = test system: TK-10 renal
NCI-H460 lung = test system: NCI-H460 lung
SF-539 CNS = test system: SF-539 CNS
HL-60(TB) leukemia = test system: HL-60(TB) leukemia
MALME-3M melanoma = test system: MALME-3M melanoma
BT-549 breast = test system: BT-549 breast
RPMI-8226 leukemia = test system: RPMI-8226 leukemia
KM12 colon = test system: KM12 colon
NCI/ADR-RES ovarian = test system: NCI/ADR-RES ovarian
SNB-19 CNS = test system: SNB-19 CNS
RXF 393 renal = test system: RXF 393 renal
A549 NSCLC = test system: A549 NSCLC
HS 578T breast = test system: HS 578T breast
HCT-15 colon = test system: HCT-15 colon
SK-MEL-2 melanoma = test system: SK-MEL-2 melanoma
OVCAR-4 ovarian = test system: OVCAR-4 ovarian
UACC-257 melanoma = test system: UACC-257 melanoma
HCC-2998 colon = test system: HCC-2998 colon
DU-145 prostate = test system: DU-145 prostate
SR leukemia = test system: SR leukemia
OVCAR-5 ovarian = test system: OVCAR-5 ovarian
U251 CNS = test system: U251 CNS
OVCAR-3 ovarian = test system: OVCAR-3 ovarian
786-0 renal = test system: 786-0 renal
M14 melanoma = test system: M14 melanoma
CCRF-CEM leukemia = test system: CCRF-CEM leukemia
IGROV1 ovarian = test system: IGROV1 ovarian
SNB-75 CNS = test system: SNB-75 CNS
SW-620 colon = test system: SW-620 colon
MOLT-4 leukemia = test system: MOLT-4 leukemia
SK-MEL-5 melanoma = test system: SK-MEL-5 melanoma
SF-295 CNS = test system: SF-295 CNS
CAKI-1 renal = test system: CAKI-1 renal
NCI-H522 lung = test system: NCI-H522 lung
ACHN renal = test system: ACHN renal
HT29 colon = test system: HT29 colon
UACC-62 melanoma = test system: UACC-62 melanoma
EKVX NSCLC = test system: EKVX NSCLC
A498 renal = test system: A498 renal
HOP-92 NSCLC = test system: HOP-92 NSCLC
SK-OV-3 ovarian = test system: SK-OV-3 ovarian
LOX IMVI melanoma = test system: LOX IMVI melanoma
T-47D breast = test system: T-47D breast
HCT-116 colon = test system: HCT-116 colon
NCI-H226 lung = test system: NCI-H226 lung
UO-31 renal = test system: UO-31 renal
MDA-MB-231 breast = test system: MDA-MB-231 breast
K-562 leukemia = test system: K-562 leukemia
SK-MEL-28 melanoma = test system: SK-MEL-28 melanoma
NCI-H23 lung = test system: NCI-H23 lung
SF-268 CNS = test system: SF-268 CNS
COLO 205 colon = test system: COLO 205 colon
HOP-62 NSCLC = test system: HOP-62 NSCLC
MDA-MB-435 = test system: MDA-MB-435

Nc1cc2ccccc2c(O)c1O
GI50 (SN12C renal): 2.13 µM
TGI (SN12C renal): 4.78 µM
GI50 (PC-3 prostate): 1.73 µM
TGI (PC-3 prostate): 3.91 µM
GI50 (MCF7 breast): 1.88 µM
TGI (MCF7 breast): 4.32 µM
GI50 (TK-10 renal): 17.9 µM
TGI (TK-10 renal): 32.2 µM
GI50 (NCI-H460 lung): 13 µM
TGI (NCI-H460 lung): 32.1 µM
GI50 (SF-539 CNS): 1.79 µM
TGI (SF-539 CNS): 3.32 µM
GI50 (HL-60(TB) leukemia): 2.08 µM
TGI (HL-60(TB) leukemia): 5.77 µM
GI50 (MALME-3M melanoma): 1.87 µM
TGI (MALME-3M melanoma): 3.83 µM
GI50 (BT-549 breast): 13.3 µM
TGI (BT-549 breast): 26.1 µM
GI50 (RPMI-8226 leukemia): 2.72 µM
TGI (RPMI-8226 leukemia): 7.13 µM
GI50 (KM12 colon): 5.24 µM
TGI (KM12 colon): 18.9 µM
GI50 (NCI/ADR-RES ovarian): 2.37 µM
TGI (NCI/ADR-RES ovarian): 6.21 µM
GI50 (SNB-19 CNS): 15.6 µM
TGI (SNB-19 CNS): 31.9 µM
GI50 (RXF 393 renal): 1.83 µM
TGI (RXF 393 renal): 3.25 µM
GI50 (A549 NSCLC): 20.5 µM
TGI (A549 NSCLC): 41.4 µM
GI50 (HS 578T breast): 5.7 µM
TGI (HS 578T breast): 96.2 µM
GI50 (HCT-15 colon): 1.9 µM
TGI (HCT-15 colon): 4.08 µM
GI50 (SK-MEL-2 melanoma): 14.4 µM
TGI (SK-MEL-2 melanoma): 33.1 µM
GI50 (OVCAR-4 ovarian): 1.53 µM
TGI (OVCAR-4 ovarian): 2.88 µM
GI50 (UACC-257 melanoma): 5.31 µM
TGI (UACC-257 melanoma): 18.1 µM
GI50 (HCC-2998 colon): 12.8 µM
TGI (HCC-2998 colon): 27.1 µM
GI50 (DU-145 prostate): 13.4 µM
TGI (DU-145 prostate): 27.4 µM
GI50 (SR leukemia): 3.16 µM
TGI (SR leukemia): 13.2 µM
GI50 (OVCAR-5 ovarian): 3.13 µM
TGI (OVCAR-5 ovarian): 13.5 µM
GI50 (U251 CNS): 1.91 µM
TGI (U251 CNS): 3.48 µM
GI50 (OVCAR-3 ovarian): 1.74 µM
TGI (OVCAR-3 ovarian): 3.52 µM
GI50 (786-0 renal): 1.85 µM
TGI (786-0 renal): 3.28 µM
GI50 (M14 melanoma): 3.35 µM
TGI (M14 melanoma): 12.3 µM
GI50 (CCRF-CEM leukemia): 3 µM
TGI (CCRF-CEM leukemia): 7.85 µM
GI50 (IGROV1 ovarian): 3.98 µM
TGI (IGROV1 ovarian): 16.3 µM
GI50 (SNB-75 CNS): 1.94 µM
TGI (SNB-75 CNS): 18.4 µM
GI50 (SW-620 colon): 2.08 µM
TGI (SW-620 colon): 4.33 µM
GI50 (MOLT-4 leukemia): 2.49 µM
TGI (MOLT-4 leukemia): 6.27 µM
GI50 (SK-MEL-5 melanoma): 15.1 µM
TGI (SK-MEL-5 melanoma): 29.3 µM
GI50 (SF-295 CNS): 15.7 µM
TGI (SF-295 CNS): 29.8 µM
GI50 (CAKI-1 renal): 1.67 µM
TGI (CAKI-1 renal): 3.1 µM
GI50 (NCI-H522 lung): 1.97 µM
TGI (NCI-H522 lung): 3.94 µM
GI50 (ACHN renal): 1.69 µM
TGI (ACHN renal): 3.54 µM
GI50 (HT29 colon): 19.6 µM
TGI (HT29 colon): 41.8 µM
GI50 (UACC-62 melanoma): 5.65 µM
TGI (UACC-62 melanoma): 18.7 µM
GI50 (EKVX NSCLC): 10.7 µM
TGI (EKVX NSCLC): 22.7 µM
GI50 (A498 renal): 16.1 µM
TGI (A498 renal): 30.5 µM
GI50 (HOP-92 NSCLC): 1.96 µM
TGI (HOP-92 NSCLC): 5.75 µM
GI50 (SK-OV-3 ovarian): 15.4 µM
TGI (SK-OV-3 ovarian): 29 µM
GI50 (LOX IMVI melanoma): 1.59 µM
TGI (LOX IMVI melanoma): 2.94 µM
GI50 (T-47D breast): 2.71 µM
TGI (T-47D breast): 7.69 µM
GI50 (HCT-116 colon): 2.07 µM
TGI (HCT-116 colon): 4.5 µM
GI50 (NCI-H226 lung): 2.36 µM
TGI (NCI-H226 lung): 5.84 µM
GI50 (UO-31 renal): 2.53 µM
TGI (UO-31 renal): 10.3 µM
GI50 (MDA-MB-231 breast): 1.96 µM
TGI (MDA-MB-231 breast): 5.22 µM
GI50 (K-562 leukemia): 2.59 µM
TGI (K-562 leukemia): 8.11 µM
GI50 (SK-MEL-28 melanoma): 12.8 µM
TGI (SK-MEL-28 melanoma): 27.4 µM
GI50 (NCI-H23 lung): 3.5 µM
TGI (NCI-H23 lung): 17.9 µM
GI50 (SF-268 CNS): 1.78 µM
TGI (SF-268 CNS): 3.59 µM
GI50 (COLO 205 colon): 15 µM
TGI (COLO 205 colon): 31.5 µM
GI50 (HOP-62 NSCLC): 15.7 µM
TGI (HOP-62 NSCLC): 30.1 µM
GI50 (MDA-MB-435): 1.83 µM
TGI (MDA-MB-435): 3.38 µM
